| SMILES | melting point |
| --- | --- |
| Cc1nc2c(c(N)c1C(=O)O)c1ccccc1n2C | 230 to 232 °C |
| Cc1noc(C)c1-c1ccccc1OC1SCC(O)C(O)C1O (configuration not stated) | 110 to 117 °C |
| CC=C(C)C1CCC2C3CC=C4CC(O)CCC4(C)C3CCC12C (configuration not stated) | 140 to 145 °C |
| CN1Cc2cscc2N(CCc2ccccc2)c2ccccc21 | 53 to 56 °C |
| CSc1nc(Cl)cc2cnc(C)n12 | 153 to 155 °C |
| Cc1noc2cc3c(cc12)C1(CO3)C(=O)N(Cc2ccccc2C(F)(F)F)c2ccccc21 (configuration not stated) | 192 to 194 °C |
| COc1c(Cl)nc(-c2ccccc2)nc1Cl | 78 to 80 °C |
| COc1cc(CCCC(=O)OC(C)C)ccc1OCc1nc(-c2ccco2)oc1C | 45 to 46 °C |
| CCOc1ccc(-c2cc(C)cn2-c2ccc(S(N)(=O)=O)cc2)cc1 | 135 to 139 °C |
| CCOC(=O)C(=CN(C)C)C(=O)c1cc2cc(F)c(F)c(F)c2nc1Cl | 118 °C |
| C[Si](C)(C)CCOc1ccc(N)cn1 | 59 to 61 °C |
| Cc1cccc(-c2nc3cccnn3c2-c2ccnc(N)c2)c1 | 188 to 189 °C |
| CCOC(=O)CCCN1CCC[C@H](NCc2ccccc2OC)[C@@H]1c1ccccc1 (relative stereo) | 75 to 90 °C |
| Cc1c(C)c2c(c(C)c1N)C(C)C(C)(N1CCN(C)CC1)O2 (configuration not stated) | 76 to 77 °C |
| Cc1ccc(COc2ncc(F)c(NS(=O)(=O)c3ccc(C)cc3)n2)cc1 | 120 to 122 °C |
| C#Cc1ccc2c(c1)C(c1ccccc1F)=NC(C)c1c(C(=O)OCC)ncn1-2 (configuration not stated) | 212 to 214 °C |
| O=C1CCC=C1c1ccc(Cl)cc1 | 71 to 72 °C |
| CON=C(c1ccccc1COc1ccc(Cl)cc1)c1ncnn1C | 113 to 114 °C |
| COC(=O)/C=C/C=C/c1ccc(OCc2nc(-c3ccccc3)oc2C)c(OC)c1 | 166 to 167 °C |
| COc1cc2c(c(OC)c1OC)C[C@@H](N1CCN(C(=O)C=Cc3ccccc3)CC1)[C@@H]2O (relative stereo) | 162 to 163 °C |

| SMILES | melting point |
| --- | --- |
| CCc1cc(O)c(C(C)=O)c(OC2OC(COC(C)=O)C(OC(C)=O)C(OC(C)=O)C2OC(C)=O)c1 (configuration not stated) | 125 to 127 °C |
| O=C(NC(=O)c1ccccc1Cl)Nc1cc(Cl)c2c(c1)C(F)(F)C(F)(F)S2 | 140 to 142 °C |
| Nc1ccn2nc(-c3ccccc3)nc2c1 | 212 to 213 °C |
| Cc1cccc(C)c1Oc1nc(Cl)nc(Oc2c(C)cccc2C)n1 | 161 to 162 °C |
| CCCc1c(S(=O)(=O)CCCOc2ccc(C(C)=O)c(OCCCC(=O)OCC)c2CCC)ccc(C(C)=O)c1O | 77 to 79 °C |
| Cc1cc([N+](=O)[O-])cc2c(Cl)c(C#N)cnc12 | 210 to 212 °C |
| CCCCNC(=N)NC(=O)NCCCC | 82 to 94 °C |
| COCc1c(C(=O)OC(C)C)ncc2[nH]c3ccc(OCc4ccccc4Cl)cc3c12 | 135 to 141 °C |
| O=C1c2ccccc2C(=O)N1OCc1cnn(C(c2ccccc2)(c2ccccc2)c2ccccc2)c1 | 186 to 188 °C |
| FC(F)(F)c1cnc(CNC(=S)Nc2ccccc2Cl)c(Cl)c1 | 126 °C |
| Cc1ccc2sc(S(=O)(=O)c3ccc(=O)[nH]n3)cc2c1 | 240 to 242 °C |
| CCCC[Si](C)(C)CCCSCCCNC(=O)n1cc(F)c(=O)[nH]c1=O | 71 to 72 °C |
| CCCNCc1cnc(-c2ncn3c2CN(C)C(=O)c2cc(F)ccc2-3)o1 | 134 to 136 °C |
| COc1cc(OC)c(-c2cc3ccccc3[nH]2)cc1C=CC(=O)c1ccc(S(=O)(=O)NCC(=O)O)cc1 | 189 to 190 °C |
| CCCS(=O)(=O)c1cc([C@H]2CC[C@H](c3cc(OC)c(OC)c(OC)c3)O2)cc(OC)c1OCCBr (relative stereo) | 135 to 136 °C |
| Cc1ccc(CS(=O)C2=C(O)CC(C)(C)CC2=O)cc1 (configuration not stated) | 89 to 90.5 °C |
| CC(=O)Oc1cccnc1-n1ccnc1S(=O)Cc1ccccc1N1CCOCC1 (configuration not stated) | 104 to 107 °C |
| CCCCCCCCCC(C)CNc1cccc(-c2ccnc3c(C(=O)c4cccs4)cnn23)c1 (configuration not stated) | 108 to 110 °C |
| O=[N+]([O-])c1ccc(Nc2ccccc2)s1 | 186 °C |

Results, then the compound that gave them:

| melting point | SMILES |
| --- | --- |
| 147 to 148 °C | CCCCCc1cc2c(nc(O)n2[C@@H](C)c2ccccc2)c(N)n1 |
| 75 to 77 °C | CN(C)CCC1CCc2cc(OCc3cc4ccccc4o3)ccc2C1 (single isomer, unassigned; (+)) |
| 90 to 92 °C | COc1cc(Cl)c(OC)cc1C |
| 237 to 242 °C | CCCOc1ccc2c(c1)C(c1ccc(OC)cc1OCC(=O)O)C(CN)C2c1ccc2c(c1)OCO2 (configuration not stated) |
| 227 to 230 °C | N#Cc1[nH]c2ccc(Br)cc2c1-c1ccccc1 |
| 195 to 196 °C | CCOC(=O)c1ccc(COCc2csc3nc(C(=O)NCc4cccc(CS(C)=O)c4)[nH]c(=O)c23)cc1 (configuration not stated) |
| 182 to 185 °C | CC1(C)CC(=O)c2c(SCCO)sc(-c3cc[nH]n3)c2C1 |
| 177 to 178 °C | CC(=O)N1CCN(Cc2cnc(-c3cc4cccc(N(C)S(=O)(=O)c5cccs5)c4[nH]3)s2)CC1 |
| 148 to 150 °C | O=C(C=Cc1ccc(O)cc1)N(CCO)CCO |
| 185 to 186 °C | Cc1ccc(C(=O)NC(NC(=S)Nc2cccnc2)C(F)(F)F)cc1 (configuration not stated) |
| 82 to 84 °C | Nc1cc(Oc2ccc(Oc3cc(N)cc(C(F)(F)F)c3)c(C(F)(F)F)c2)cc(C(F)(F)F)c1 |
| 164 °C | Nc1ccc(C(=O)c2ccccc2)cc1COC1CCCCO1 (configuration not stated) |
| 162 to 164 °C | Cc1cc(=S)cc(C)n1CCN |
| 131 to 132 °C | CCOC(=O)c1ccc2oc3ncccc3c(=O)c2c1 |
| 213 to 214 °C | CC(C)(CC(O)(Cn1ccc2c1CCCC2=O)C(F)(F)F)c1cc(-c2cncnc2)cc2c1OCC2 (configuration not stated) |
| 185 to 186 °C | COc1cccc(Cc2nnc(SC)[nH]c2=O)c1 |
| 82 to 84 °C | CCOC(=O)c1cnn2c1c(NC(C)CC)nc1ccccc12 (configuration not stated) |
| 153 to 155 °C | CS(=O)(=O)c1ccc(C(=O)c2cnoc2C2CC2)c(Cl)c1-c1nccs1 |
| 165 to 170 °C | CCCN1C(=O)N2CC(Cc3ccccc3)N=C2c2[nH]c(C(C)OCC)nc21 (configuration not stated) |
| 178 to 179 °C | Cc1nc2ccccc2c2c([N+](=O)[O-])cnn12 |

| melting point | SMILES |
| --- | --- |
| 224 to 226 °C | CCNc1nc(C)c(-c2ccnc(Nc3ccc(N4CCOCC4)c(OC)c3)n2)s1 |
| 83 to 89 °C | O=C(C=P(c1ccccc1)(c1ccccc1)c1ccccc1)CCCOc1ccccc1 |
| 84 to 86 °C | CCN(C(=O)N1CCN(c2cc(C)cc(C)c2)CC1)c1cc2ccccc2nc1OC |
| 70 to 80 °C | COc1cc2c(cc1Nc1ncc(Cl)c(Nc3ccc(N4CCOCC4)cc3OC)n1)CCN(CC(=O)OC(C)C)CC2 |
| 109 to 110 °C | O=S(=O)(c1ccc(F)cc1)C(F)(F)C(F)(F)C(F)(F)C(F)(F)C(F)(F)C(F)(F)C(F)(F)C(F)(F)S(=O)(=O)c1ccc(F)cc1 |
| 191 to 193 °C | CC(=O)CN1CCN(C(=O)Cn2c(=O)sc3ncc(Cl)cc32)CC1 |
| 116 to 118 °C | O=C(O)c1cc([N+](=O)[O-])ccc1NCCc1ccccc1 |
| 122 to 125 °C | Cn1c(C(F)(F)F)c(-c2ccc(C[C@H](NC(=O)c3c(F)cccc3C(F)(F)F)C(=O)O)cc2)c(=O)n(C)c1=O |
| 62 °C | C=CCOc1cc(Br)ccc1C(=O)OC |
| 151 to 158 °C | CC1(c2ccccc2)CN(C(=O)Nc2ccc(Cl)cc2)N=C1c1ccc(Cl)cc1 (configuration not stated) |
| 115 to 116 °C | COc1cc(C#CC(=O)O)cc(OC)c1OCc1ccccc1 |
| 117 to 118 °C | CCc1cccc2c3c([nH]c12)C(CC)(CC(=O)OC)OCC3O (configuration not stated) |
| 98 to 99 °C | O=C(c1ccccc1F)c1cc(Cl)ccc1CCCN1C(=O)c2ccccc2C1=O |
| 266 to 270 °C | O[C@H]1CC[C@H](Nc2nccc(-c3n[nH]c4c(C(F)(F)F)cccc34)n2)CC1 |
| 193 to 197 °C | CCC(=O)NC(=O)Nc1ccc(OC)c(OC)c1 |
| 105 to 108 °C | COC(=O)C[C@]1(C)C[C@@H](COc2ccc(-c3ccc(C#N)cc3)cc2)NC1=O |
| 161 to 163 °C | O=C1c2ccc([N+](=O)[O-])cc2S(=O)(=O)N1CSc1ccccc1 |
| 39 to 40 °C | CSc1ccc(Br)cn1 |
| 127 °C | CN(C(=O)c1cc(-c2ccccc2)c2sccc2c1)c1ccccc1 |
| 193 to 195 °C | Cn1ncc(-c2nn(-c3cccc(C(F)(F)F)c3)ccc2=O)c1-c1ccccc1 |

| melting point | SMILES |
| --- | --- |
| 203 to 205 °C | CS(=O)(=O)c1ccc(-n2nc(C(F)(F)F)cc2-c2ccc(-c3cscn3)cc2)cc1CO |
| 95.5 to 96.5 °C | COCC1CN(c2ccc3ccc(OC)cc3c2)C(=O)O1 (configuration not stated) |
| 210 to 214 °C | Cc1cc(NCCO)c2[nH]nc(Br)c2n1 |
| 180 to 183 °C | CCSc1nc(N)c(C(N)=S)s1 |
| 39 to 41.5 °C | CCS(=O)(=O)ON=C(Cl)c1ccc(F)cc1 |
| 271 to 274 °C | CN(C1=CC(=O)CC1)[C@@H]1c2cc(C#N)ccc2OC(C)(C)[C@H]1O (relative stereo) |
| 150 to 151 °C | COc1ccnc(CS(=O)c2nc3c(C(F)(F)F)cccc3[nH]2)c1 (configuration not stated) |
| 149 °C | CCOC(=O)N1CCC(Nc2nc3cccnc3n2Cc2ccco2)CC1 |
| 220 to 222 °C | CCNC(=O)NCc1cccc2c1C(=O)N(C1(C)CCC(=O)NC1=O)C2=O (configuration not stated) |
| 114 to 115 °C | COc1ccc(CCCON2CCC(C(=O)c3nc4ccccc4s3)CC2)cc1 |
| 156 to 157 °C | Cn1cc(CC(=O)O)c(OCc2ccc(OCc3csc(-c4ccccc4)n3)nc2)n1 |
| 264 to 266 °C | Nc1ccn(CC2CC2)c(=O)n1 |
| 144 °C | C[C@@H](N[C@@H](CC(=O)O)Cc1cc(F)c(F)cc1F)c1ccccc1 |
| 106 to 108 °C | Cn1nnnc1SCC1NCCc2cc(OCc3ccccc3)c(OCc3ccccc3)cc21 (configuration not stated) |
| 157 to 158 °C | C[C@]1(CN2CCN(C3CCN(CC=Cc4ccc(OC(F)(F)F)cc4)CC3)CC2)Cn2cc([N+](=O)[O-])nc2O1 |
| 206 to 208 °C | CCc1cccc(C)c1CNc1cc(Br)cc2c1nc(CO)n2C |
| 70 to 72 °C | CCCc1c(OCCCOc2ccc3c(c2CCC)OC(C(=O)OC)CC3)ccc(C(C)=O)c1O (configuration not stated) |
| 46 to 47 °C | CCC(I)CCCC(F)(F)C(F)(F)C(F)(F)C(F)(F)C(F)(F)C(F)(F)C(F)(F)C(F)(F)F (configuration not stated) |
